IC50 data for 25 molecules are collected here from patent US9458153B2, “Dihydroquinolizinones for the treatment and prophylaxis of hepatitis B virus infection” (Hoffmann-La Roche Inc., priority 2014, dated 2016).

The structures appear in SMILES notation. pIC50: −log10 of the molar value. Where a name gives a salt, the structure may show the parent alone.

The first assay concerns HBsAg. Nature of the assay: HBsAg assay (chemiluminescence immunoassay of secreted HBsAg in HepG2.2.15 culture supernatant). It counts as cell-based, HBV. Particulars: HBsAg secretion reduced by 50% vs no drug control; HepG2.2.15 cells; CLIA kit. As to the method: HepG2.2.15 cells (Acs et al. Proc Natl Acad Sci USA, 84, (1987), 4641-4), a constitutively HBV-expressing cell line were cultured in DMEM+Glutamax-I medium (Invitrogen, Carlsbad, Calif., USA), supplemented with 10% fetal bovine serum (Invitrogen) and G418 (Invitrogen) at a final concentration of 200 mg/L and maintained in 5% CO2 at 37° C.
HepG2.2.15 cells were seeded in duplicate into white, 96-well plates at 1.5×10^4 cells/well. The cells were treated with a three-fold serial dilution series of the compounds in DMSO. The final DMSO concentration in all wells was 1% and DMSO was used as no drug control.
The HBsAg chemiluminescence immunoassay (CLIA) kit (Autobio Diagnostics Co., Zhengzhou, China, Catalog number: CL0310-2) was used to measure the levels of secreted HBV antigens semi-quantitatively. For the detection 50 μL/well culture supernatant was used and HBsAg was quantified using HBsAg chemiluminescence immunoassay (CLIA) kit (Autobio Diagnostics Co., Zhengzhou, China, Catalog number: CL0310-2), 50 μL of the supernatant was transferred to the CLIA assay plate and 50 μL of enzyme conjugate reagent was added into each well. The plates were sealed and gently agitated for 1 hour at room temperature. The supernatant-enzyme-mixture was discarded and wells were washed 6 times with 300 μL of PBS. The residual liquid was removed by plating the CLIA plate right side down on absorbent tissue paper. 25 μL of substrates A and B were added to each well. Luminance was measured using a luminometer (Mithras LB 940 Multimode Microplate Reader) after 10 minutes incubation. Dose-response curves were generated and the IC50 value was extrapolated by using the E-WorkBook Suite (ID Business Solutions Ltd., Guildford, UK).
The compounds of the present invention were tested for their capacity to inhibit HBsAg as described herein.
The pIC50 is the IC50 on a negative log10 scale, so that one unit is a factor of ten. `COc1cc2c(cc1OCCCCCO)CC(C(C)(C)C)n1cc(C(=O)O)c(=O)cc1-2` (single isomer, unassigned; (+)) [Example 153, (+)-6-tert-butyl-9-(5-hydroxypentoxy)-10-methoxy-2-oxo-6,7-dihydrobenzo[a]quinolizine-3-carboxylic acid] had a pIC50 of 9.00. Still for that read-out and setting: for `COc1cc2c(cc1OCCCCCCO)CC(C(C)(C)C)n1cc(C(=O)O)c(=O)cc1-2` (single isomer, unassigned; (+)) [Example 156, (+)-6-tert-butyl-9-(6-hydroxyhexoxy)-10-methoxy-2-oxo-6,7-dihydrobenzo[a]quinolizine-3-carboxylic acid] the value was 9.00. Turning to `COc1cc2c(cc1OCCCCCCNC(=O)OC(C)(C)C)CC(C(C)(C)C)n1cc(C(=O)O)c(=O)cc1-2` (single isomer, unassigned; (+)) [Example 162, (+)-9-[6-(tert-butoxycarbonylamino)hexoxy]-6-tert-butyl-10-methoxy-2-oxo-6,7-dihydrobenzo[a]quinolizine-3-carboxylic acid], the pIC50 was 8.70. As for `COc1cc2c(cc1OCCCCCCCCNC(=O)OC(C)(C)C)CC(C(C)(C)C)n1cc(C(=O)O)c(=O)cc1-2` (single isomer, unassigned; (+)) [Example 168, (+)-9-[8-(tert-butoxycarbonylamino)octoxy]-6-tert-butyl-10-methoxy-2-oxo-6,7-dihydrobenzo[a]quinolizine-3-carboxylic acid], the pIC50 was 8.22. For the molecule `COc1cc2c(cc1OCCCSC)CC(C(C)(C)C)n1cc(C(=O)O)c(=O)cc1-2` (single isomer, unassigned; (+)) [Example 184, (+)-6-tert-butyl-10-methoxy-9-(3-methylsulfanylpropoxy)-2-oxo-6,7-dihydrobenzo[a]quinolizine-3-carboxylic acid], the pIC50 was 9.00. For the molecule `COc1cc2c(cc1OCCCS(C)(=O)=O)CC(C(C)(C)C)n1cc(C(=O)O)c(=O)cc1-2` (single isomer, unassigned; (+)) [Example 187, (+)-6-tert-butyl-10-methoxy-9-(3-methylsulfonylpropoxy)-2-oxo-6,7-dihydrobenzo[a]quinolizine-3-carboxylic acid], the pIC50 is 7.89. Turning to `COc1cc2c(cc1OCCCN1CCOCC1)CC(C(C)(C)C)n1cc(C(=O)O)c(=O)cc1-2` (single isomer, unassigned; (+)) [Example 193, (+)-6-tert-butyl-10-methoxy-9-(3-morpholinopropoxy)-2-oxo-6,7-dihydrobenzo[a]quinolizine-3-carboxylic acid], the pIC50 is 8.52. The same measure, in the same setting: the value for `COCCCOc1cc2c(cc1OC)-c1cc(=O)c(C(=O)O)cn1C(CC(F)(F)F)C2` (single isomer, unassigned; (+)) [Example 200, (+)-10-methoxy-9-(3-methoxypropoxy)-2-oxo-6-(2,2,2-trifluoroethyl)-6,7-dihydrobenzo[a]quinolizine-3-carboxylic acid] was 7.62; that for `COCCCOc1cc2c(cc1Cl)-c1cc(=O)c(C(=O)O)cn1C(C(C)(C)C)C2` (single isomer, unassigned; (+)) [Example 203, (+)-6-tert-butyl-10-chloro-9-(3-methoxypropoxy)-2-oxo-6,7-dihydrobenzo[a]quinolizine-3-carboxylic acid] was 9.52. The same measure, in the same setting: the value for `COCCCOc1cc2c(c(F)c1F)-c1cc(=O)c(C(=O)O)cn1C(C(C)C)C2` (single isomer, unassigned; (+)) [Example 214, (+)-10,11-difluoro-6-isopropyl-9-(3-methoxypropoxy)-2-oxo-6,7-dihydrobenzo[a]quinolizine-3-carboxylic acid] was 7.82; that for `CCOc1cc2c(cc1OCC)-c1cc(=O)c(C(=O)O)cn1C(CC)C2` (single isomer, unassigned; (-)) [Example 7, (−)-9,10-diethoxy-6-ethyl-2-oxo-6,7-dihydrobenzo[a]quinolizine-3-carboxylic acid] was 5.72; that for `CCC1Cc2cc(OCc3ccccc3)c(OC)cc2-c2cc(=O)c(C(=O)O)cn21` (single isomer, unassigned; (-)) [Example 10, (−)-9-benzyloxy-6-ethyl-10-methoxy-2-oxo-6,7-dihydrobenzo[a]quinolizine-3-carboxylic acid] was 5.91.

In the case of `CCC1Cc2cc(OCC(F)(F)F)c(OC)cc2-c2cc(=O)c(C(=O)O)cn21` (single isomer, unassigned; (-)) [Example 12, (−)-6-ethyl-10-methoxy-2-oxo-9-(2,2,2-trifluoroethoxy)-6,7-dihydrobenzo[a]quinolizine-3-carboxylic acid], the negative logarithm of the IC50 (pIC50) is 5.28.

Molecule `CCC1Cc2cc(OCC(C)(C)CO)c(OC)cc2-c2cc(=O)c(C(=O)O)cn21` (single isomer, unassigned; (-)) [Example 24, (−)-6-ethyl-9-(3-hydroxy-2,2-dimethyl-propoxy)-10-methoxy-2-oxo-6,7-dihydrobenzo[a]quinolizine-3-carboxylic acid] gave a pIC50 of 5.87. Same read-out and setting: the value for `CCC1Cc2cc(OCCOC)c(OC)cc2-c2cc(=O)c(C(=O)O)cn21` (single isomer, unassigned; (-)) [Example 29, (−)-6-ethyl-10-methoxy-9-(2-methoxyethoxy)-2-oxo-6,7-dihydrobenzo[a]quinolizine-3-carboxylic acid] was 5.71; that for `CCC1Cc2cc(OCC3CC3)c(OC)cc2-c2cc(=O)c(C(=O)O)cn21` (single isomer, unassigned; (-)) [Example 32, (−)-9-(cyclopropylmethoxy)-6-ethyl-10-methoxy-2-oxo-6,7-dihydrobenzo[a]quinolizine-3-carboxylic acid] was 7.12.

For `CCC1Cc2cc(OCC(C)C)c(OC)cc2-c2cc(=O)c(C(=O)O)cn21` (single isomer, unassigned; (-)) [Example 35, (−)-6-ethyl-9-isobutoxy-10-methoxy-2-oxo-6,7-dihydrobenzo[a]quinolizine-3-carboxylic acid], the negative logarithm of the IC50 (pIC50) is 5.86. Regarding `CCOc1cc2c(cc1OC)-c1cc(=O)c(C(=O)O)cn1C(CC)C2` (single isomer, unassigned; (-)) [Example 38, (−)-9-ethoxy-6-ethyl-10-methoxy-2-oxo-6,7-dihydrobenzo[a]quinolizine-3-carboxylic acid], the negative-log IC50 (pIC50) is 5.74.

Consider `CCC1Cc2cc(OCCCOC)c(OC)cc2-c2cc(=O)c(C(=O)O)cn21` (single isomer, unassigned; (-)) [Example 41, (−)-6-ethyl-10-methoxy-9-(3-methoxypropoxy)-2-oxo-6,7-dihydrobenzo[a]quinolizine-3-carboxylic acid], for which the pIC50 was 5.24. In the case of `CCOCCOc1cc2c(cc1OC)-c1cc(=O)c(C(=O)O)cn1C(CC)C2` (single isomer, unassigned; (-)) [Example 44, (−)-9-(2-ethoxyethoxy)-6-ethyl-10-methoxy-2-oxo-6,7-dihydrobenzo[a]quinolizine-3-carboxylic acid], the pIC50 was 5.26.

`CCC1Cc2cc(OCC(F)F)c(OC)cc2-c2cc(=O)c(C(=O)O)cn21` (single isomer, unassigned; (-)) [Example 47, (−)-9-(2,2-difluoroethoxy)-6-ethyl-10-methoxy-2-oxo-6,7-dihydrobenzo[a]quinolizine-3-carboxylic acid] gave a pIC50 of 5.47. Consider `CCC1Cc2cc(OCC3CCOCC3)c(OC)cc2-c2cc(=O)c(C(=O)O)cn21` (single isomer, unassigned; (-)) [Example 50, (−)-6-ethyl-10-methoxy-2-oxo-9-(tetrahydropyran-4-ylmethoxy)-6,7-dihydrobenzo[a]quinolizine-3-carboxylic acid], for which the negative-log IC50 (pIC50) was 6.40.

Still in this assay, the particulars now being: HBsAg secretion reduced by 50% vs no drug control; HepG2.2.15 cells; CLIA kit; hydrochloride.
`COc1cc2c(cc1OCCCCCCN)CC(C(C)(C)C)n1cc(C(=O)O)c(=O)cc1-2` (single isomer, unassigned; (+)) [Example 164, (+)-9-(6-aminohexoxy)-6-tert-butyl-10-methoxy-2-oxo-6,7-dihydrobenzo[a]quinolizine-3-carboxylic acid hydrochloride]: the pIC50 is 8.52. The same measure, in the same setting: the value for `COc1cc2c(cc1OCCCCCCCCN)CC(C(C)(C)C)n1cc(C(=O)O)c(=O)cc1-2` (single isomer, unassigned; (+)) [Example 170, (+)-9-(8-aminooctoxy)-6-tert-butyl-10-methoxy-2-oxo-6,7-dihydrobenzo[a]quinolizine-3-carboxylic acid hydrochloride] was 8.10; that for `COc1cc2c(cc1OCCCCCN)CC(C(C)(C)C)n1cc(C(=O)O)c(=O)cc1-2` (single isomer, unassigned; (+)) [Example 173, (+)-9-(5-aminopentoxy)-6-tert-butyl-10-methoxy-2-oxo-6,7-dihydrobenzo[a]quinolizine-3-carboxylic acid hydrochloride] was 7.68.
